Laboratory results published in PMC6592895, “Unusual Flavones from Primula macrocalyx as Inhibitors of OAT1 and OAT3 and as Antifungal Agents against Candida rugosa” (Scientific Reports, 2019).
≈ marks a conversion by molar mass, not a printed value. Like-named read-outs stand apart in the source and are kept apart here.

Tests used:
[1] = molecular target: T1, OAT1 (Homo sapiens, UniProt Q4U2R8); assay: 6-CF uptake assay in HEK-OAT1 cells; conditions: for inhibition at 5 min, 50 µM: human, HEK293 cells stably overexpressing OAT1 (HEK-OAT1), pH 7.2, probe 6-CF (4 µM)
T1 sequence (Q4U2R8 1-563): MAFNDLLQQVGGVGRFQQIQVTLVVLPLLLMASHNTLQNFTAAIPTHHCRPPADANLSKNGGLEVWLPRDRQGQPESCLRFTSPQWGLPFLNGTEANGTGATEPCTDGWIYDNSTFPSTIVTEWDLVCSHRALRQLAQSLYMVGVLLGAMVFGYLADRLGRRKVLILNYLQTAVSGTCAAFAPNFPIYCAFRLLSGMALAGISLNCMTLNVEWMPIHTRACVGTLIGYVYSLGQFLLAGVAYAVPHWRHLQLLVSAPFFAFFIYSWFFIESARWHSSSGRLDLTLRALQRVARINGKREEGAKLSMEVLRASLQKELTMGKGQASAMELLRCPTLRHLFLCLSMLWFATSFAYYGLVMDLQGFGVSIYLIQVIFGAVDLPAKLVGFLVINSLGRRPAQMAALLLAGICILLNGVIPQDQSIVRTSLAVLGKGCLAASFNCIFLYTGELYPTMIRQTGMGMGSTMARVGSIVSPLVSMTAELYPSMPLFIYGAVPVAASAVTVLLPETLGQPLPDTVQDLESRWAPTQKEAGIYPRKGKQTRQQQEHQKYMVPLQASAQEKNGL
Procedure: (§1) The interactions of 12 flavones with the uptake of 6-CF in HEK-OAT1 and HEK-OAT3 cells were evaluated. This cell uptake assay was performed as previously described[14],[35]. A density of 5 × 10^4 cells were seeded per well in 96-well culture plates precoated with poly-D-lysine. […] Uptake was terminated by adding 100 µL ice-cold uptake buffer, and quickly washing the cells in each well three times with ice-cold phosphate-buffered saline (PBS). The cells were lysed with 100 µL of 20 mM Tris-HCl containing 0.2% TritonX-100. […] The protein content of the cell lysate was quantified using a BCA Protein Assay Kit. The intensity of fluorescence was standardized against total protein content, and measured in triplicate. The stock solutions of tested compounds were dissolved in DMSO with a final concentration of 50 mM and dilutions were made using uptake buffer.
(§2) For the uptake experiments, data were analyzed with a two-tailed unpaired Student’s t-test.

[2] = tested on: Candida rugosa (ATCC 10571); assay: Broth microdilution antifungal assay; format: cell-based; conditions: YM broth, 25 °C, read-out: MICs C. rugosa
Procedure: Antifungal activity against C. rugosa (ATCC 10571) was measured as previously described using a broth microdilution method[36]–[38] with minor modifications. The assay was performed in sterile 96-well microtiter plates. Briefly, YM broth was prepared and autoclaved for 20 min at 121 °C, then allowed to cool to room temperature (25 °C). C. rugosa was dispersed in YM broth to an optical density of 1 UA at 600 nm (approximately 1 × 10^7 cfu/mL) using uninoculated broth as the blank. A 198 µL aliquot of the resulting fungal suspension was dispensed into each well of a 96-well plate. Stock solutions of the twelve compounds were prepared in DMSO at a concentration of 50 mM. The stock solutions were diluted to a range of final concentrations (500–0.14 µM) in YM broth such that the final DMSO concentration was no higher than 1%, v/v. A 2 µL aliquot of the resulting test samples was transferred to each well of the plate. Plates were incubated at 25 °C for 24 h prior to measurement of the optical density of each well at 600 nm. […] Amphotericin B was used as positive control.

[3] = molecular target: T2, OAT3 (Homo sapiens, UniProt Q8TCC7); assay: 6-CF uptake assay in HEK-OAT3 cells
T2 sequence (Q8TCC7 1-542): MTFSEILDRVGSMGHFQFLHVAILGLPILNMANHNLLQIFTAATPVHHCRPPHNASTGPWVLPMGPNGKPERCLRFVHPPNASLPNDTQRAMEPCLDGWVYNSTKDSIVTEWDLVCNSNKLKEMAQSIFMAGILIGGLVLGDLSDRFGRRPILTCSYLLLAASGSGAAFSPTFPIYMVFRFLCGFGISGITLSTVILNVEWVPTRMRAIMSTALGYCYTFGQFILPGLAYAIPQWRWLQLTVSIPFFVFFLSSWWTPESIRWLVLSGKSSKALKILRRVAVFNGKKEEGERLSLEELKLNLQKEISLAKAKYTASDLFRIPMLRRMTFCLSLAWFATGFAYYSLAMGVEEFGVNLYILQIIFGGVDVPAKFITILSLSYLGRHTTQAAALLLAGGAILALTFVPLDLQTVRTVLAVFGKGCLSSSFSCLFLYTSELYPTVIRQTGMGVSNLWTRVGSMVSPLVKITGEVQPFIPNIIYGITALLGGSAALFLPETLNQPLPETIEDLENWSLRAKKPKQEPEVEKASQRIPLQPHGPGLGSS
Procedure: as §1, §2

[4] = tested on: OAT1; conditions: cited from earlier work
[5] = tested on: OAT3; conditions: read-out: IC50 OAT3; biflavonoids from Juniperus oblonga; cited from earlier work
[6] = tested on: OAT3; conditions: cited from earlier work
[7] = tested on: Oat3; conditions: rat, in vivo, po; cited from earlier work
[8] = tested on: OAT1; parameters: method as in PMID 30248705; conditions: previous study; cited from earlier work
[9] = tested on: OAT3; parameters: method as in PMID 30248705; conditions: previous study; cited from earlier work
[10] = tested on: OAT1; conditions: read-out: IC50 OAT1; assay similar to that used in this study; cited from earlier work
[11] = tested on: Candida rugosa; assay: Agar well diffusion antimicrobial assay; format: cell-based; conditions: Diutina rugosa, fraction at 1 mg/mL in DMSO, read-out: diameter zone of inhibition
Procedure: Approximately 15 mL aliquots of each medium were dispensed into petri plates and allowed to solidify, then incubated for 24 h to ensure sterility prior to use. Microbial suspensions (0.5 mL) at a density of 5 × 10^6 cfu/mL were inoculated onto the sterile media and allowed to stand for 10–20 min before wells were cut into the agar using a sterile pipet tip. A 10 µL aliquot of a DMSO solution of plant extracts (1 mg/mL) or fractions (2, 0.2, 0.02 mg/mL) were pipetted into each well. Similarly, 10 µL portions of DMSO and a solution of an appropriate antibiotic standard were applied to each plate as negative and positive controls, respectively. All treated plates were incubated for 24 h in incubators at appropriate temperatures. Zones of inhibition were measured in millimeters. The assays were performed in triplicate.

[12] = tested on: OAT1; conditions: cited from earlier work; remark: listed apart in the source
[13] = Diutina rugosa, ATCC10571, 24 h

IC50 [1] | MIC [2, 13] | IC50 [3] | SMILES | further results
9.6 µM | < 2 µM | 2.9 µM | COc1ccccc1-c1cc(=O)c2c(OC)c(OC)ccc2o1 [Compound 12, 5,6,2′-trimethoxyflavone] | MIC ([2]; 24 h): 2.0 µM (≈ 0.625 µg/mL)
– | – | – | O=c1cc(-c2ccc(O)c(O)c2)oc2cc(O)cc(O)c12 [luteolin] | IC50 [4]: 0.47 µM
10 µM | < 2 µM | 7.4 µM | COc1ccc(OC)c(-c2cc(=O)c3c(OC)c(OC)ccc3o2)c1OC [Compound 8, 5,6,2′,3′,6′-pentamethoxyflavone] | MIC ([2]; 24 h): 1.2 µM (≈ 0.447 µg/mL)
11.4 µM | > 500 µM | 8 µM | O=c1cc(-c2cccc(O)c2)oc2ccccc12 [Compound 9, 3′-hydroxyflavone] | –
2.9 µM | > 500 µM | 6.3 µM | COc1ccccc1-c1cc(=O)c2ccccc2o1 [Compound 3, 2′-methoxyflavone] | –
3.2 µM | > 500 µM | 5.1 µM | COc1cc(-c2cc(=O)c3ccccc3o2)cc(O)c1OC [Compound 6, 3′-hydroxy-4′,5′-dimethoxyflavone] | –
– | – | – | COc1ccc(-c2cc(=O)c3c(O)cc(O)c(-c4cc(-c5cc(=O)c6c(O)cc(O)cc6o5)ccc4O)c3o2)cc1 [podocarpusflavone A] | IC50 [5]: 3.8 µM
– | – | – | O=c1cc(-c2ccccc2)oc2cc(O)c(O)c(O)c12 [baicalein] | IC50 [6]: 2.4 µM
– | – | – | O=c1c(O)c(-c2ccc(O)cc2O)oc2cc(O)cc(O)c12 [Morin] | IC50 ([4]; read-out: IC50 OAT1, PAH uptake assay in LLC-PK1 cells): < 0.3 µM
– | – | – | O=c1cc(-c2ccc(O)c(-c3c(O)cc(O)c4c(=O)cc(-c5ccc(O)cc5)oc34)c2)oc2cc(O)cc(O)c12 [amentoflavone] | effect on pharmacokinetic parameters of furosemide (substrate of Oat3) [7]: markedly altered; IC50 [5]: 2 µM
9.4 µM | 500 µM (≈ 111 µg/mL) | 4.6 µM | O=c1cc(-c2ccccc2)oc2ccccc12 [Compound 2, flavone] | –
– | – | – | COc1ccc2c(=O)cc(-c3ccccc3)oc2c1 [7-methoxyflavone] | IC50 [8]: 3.6 µM; IC50 [9]: 5.8 µM
– | > 500 µM | 10.9 µM | COc1cccc(OC)c1-c1cc(=O)c2c(OC)c(OC)cc(OC)c2o1 [Compound 11, 5,6,8,2′,6′-pentamethoxyflavone] | inhibition at 5 min, 50 µM [1]: < 70%
– | – | – | O=c1cc(-c2ccc(O)cc2)oc2c(-c3c(O)cc(O)c4c(=O)cc(-c5ccc(O)cc5)oc34)c(O)cc(O)c12 [cupressuflavone] | IC50 [5]: > 50 µM
– | – | – | COc1c(O)cc(O)c2c(=O)cc(-c3ccccc3)oc12 [Wogonin] | IC50 [10]: 5.4 µM; IC50 ([6]; read-out: IC50 OAT3, assay similar to that used in this study): 1.3 µM
– | > 500 µM | 18.8 µM | O=c1cc(-c2ccccc2O)oc2ccccc12 [Compound 10, 2′-hydroxyflavone] | inhibition at 5 min, 50 µM [1]: < 70%
– | – | – | COc1cc2c(=O)c(-c3ccccc3O)coc2c(OC)c1OC [2′-hydroxy-6,7,8-trimethoxyisoflavone] | IC50 [8]: 9.1 µM; IC50 [9]: 8.7 µM
– | 0.4 µM (≈ 0.37 µg/mL) | – | C[C@@H]1[C@H](O)[C@@H](C)/C=C/C=C/C=C/C=C/C=C/C=C/C=C/[C@H](O[C@@H]2O[C@H](C)[C@@H](O)[C@H](N)[C@@H]2O)C[C@@H]2O[C@](O)(C[C@@H](O)C[C@@H](O)[C@H](O)CC[C@@H](O)C[C@@H](O)CC(=O)O[C@H]1C)C[C@H](O)[C@H]2C(=O)O [Amphotericin B, reference compound] | zone of inhibition at 1000 µg/mL [11]: 11 mm
– | – | – | O=c1cc(-c2ccc(O)cc2)oc2cc(O)cc(O)c12 [Apigenin] | IC50 [12]: 0.737 µM
26.9 µM | > 500 µM | 27.3 µM | COc1ccc(O)cc1-c1cc(=O)c2ccccc2o1 [Compound 5, 2′-methoxy-5′-hydroxyflavone] | –
– | – | – | COc1c(O)cc2c(=O)c(-c3ccccc3O)coc2c1OC [6,2′-dihydroxy-7,8-dimethoxyisoflavone] | IC50 [9]: 17.9 µM
– | > 500 µM | – | COc1cccc(-c2cc(=O)c3ccccc3o2)c1 [Compound 1, 3′-methoxyflavone] | inhibition at 5 min, 50 µM [1]: < 70%; inhibition at 5 min, 50 µM ([3]; human, HEK293 cells stably overexpressing OAT3 (HEK-OAT3), pH 7.2, probe 6-CF (4 µM)): < 70%
– | – | – | COc1cc2c(=O)c(-c3ccccc3O)coc2c(OC)c1O [7,2′-dihydroxy-6,8-dimethoxyisoflavone] | IC50 [9]: 5.6 µM
32.9 µM | > 500 µM | 12.1 µM | COc1ccc(OC)c(-c2cc(=O)c3ccccc3o2)c1 [Compound 4, 2′,5′-dimethoxyflavone] | –
